The text below walks through data of patent US12285408B2, “Methods and compositions for the treatment of snake bite” (priority 2021, dated 2025).

The test system of series [1] is S. miliarius venom. The series can be described thus: Murine preincubation model of venom lethality, North American pit viper venom. It is filed as in vivo, CD-1 mice. The note with it: 2.5×LD50 S. miliarius venom preincubated with 60 μg of each drug, i.v., 6 h, n=5. Here is the method: Thereafter, the same murine animal model was used to explore the efficacy of the same snake venom metalloproteinase and phospholipase A2 inhibiting drugs as solo and combination treatments against North American pit viper venoms. The intravenous median lethal dose (venom LD50) for C. atrox, C. scutulatus, S. miliariius and A. contortrix venoms was previously determined (3.79 μg, 0.17 μg, 4.87 μg and 4.99 μg per mouse, respectively). […] As described above, all experimental doses were prepared to a volume of 200 μl in PBS and incubated at 37° C. for 30 min prior to their intravenous injection via the tail vein. Animals were monitored for 6 h, and euthanized via rising concentrations of CO2 upon observation of previously defined humane end points that are predicators of lethality (e.g., seizure, pulmonary distress, paralysis, hemorrhage). Deaths, time of death, and survivors were recorded; where death/time of death represents the implementation of euthanasia based on defined humane end points.
These snake species were selected for their taxonomic diversity and clinical importance in the USA, namely: 1) Crotalus atrox (Western diamondback), which is found across the southwest USA and into Mexico and is thought to be the most common cause of snakebite envenoming in USA, 2) Crotalus scutulatus (Mojave rattlesnake), which is also found across the southwest USA and into Mexico, 3) Sistrurus miliarius (pygmy rattlesnake), which is found in the South-East USA, and 4) Agkistrodon contortrix (Eastern copperhead), which is found in central and eastern USA. […] The drug treatments consisted of: DMPS, marimastat, or varespladib as solo drug treatments, or a DMPS and varespladib combination, or a marimastat and varespladib combination.

For series [2], the system named is procoagulant and anticoagulant toxins fractionated from D. russelii venom. The series can be described thus: Nanofractionation of D. russelii venom with plasma coagulation assay. It is filed as biochemical, Daboia russelii. The note with it: inhibitor 20 μM to 0.0064 μM. The method, then: FIG. 12. […] The data is plotted separately for ‘very fast coagulation’, ‘medium coagulation’ and ‘anticoagulation’, based on the slopes of the 0-5 min and 0-20 min readings, and the single endpoint reading at 180 min. The tested inhibitor concentrations are presented alongside the chromatograms. […] The data is presented as the maximal clotting velocity at each concentration, and represents means of triplicate independent repeats with SEMs, where each technical repeat represents the mean of n≥2 technical replicates. The venom-only control (top dashed lines) and the negative control (bottom dashed lines) are presented as intervals and represent the average±SEM observed for the venom-only and PBS controls across all datasets and replicates.
Fifty microlitres of venom solution (D. russelii; 1 mg/ml) was injected into a Shimadzu LC-2010 system with nanofractionation in parallel. Separation was performed on a Waters XBridge reversed-phase C18 column (250×4.6 mm column with 3.5 μm pore-size) at 30° C. The total flow rate of the mobile phase solution was 0.5 ml/min with eluent A (98% H2O, 2% acetonitrile [ACN], 0.1% formic acid [FA]) and eluent B (98% ACN, 2% H2O, 0.1% FA). Liquid chromatography gradients consisted of a linear increase of mobile phase B from 0 to 50% in 20 min, followed by a linear increase to 90% B in 4 min, then isocratic at 90% B for 5 min, after which the percentage of mobile phase B was decreased from 90% to 0% in 1 min, followed by 10 min at 0% B to re-equilibrate. The effluent was split in a 1:9 ratio of which the 10% fraction was sent to a Shimadzu SPD-M20A prominence diode array detector and the 90% fraction was directed to a nanofractionation collector which dispensed the fractions into transparent 384-well plates (F-bottom, rounded square well, polystyrene, without lid, clear, non-sterile; Greiner Bio One, Alphen aan den Rijn, The Netherlands) at a resolution of 6 s/well. […]
The final assay concentrations of the inhibitors tested in the assay were 20 μM, 4 μM, 0.8 μM, 0.16 μM, 0.032 μM and 0.0064 μM. […] The plate was then read immediately for absorbance kinetically for 100 min at 595 nm at 25° C. using a Varioskan™ Flash Multimode Reader (Thermo Fisher Scientific, Ermelo, The Netherlands). The obtained results were normalized by dividing the slope measured in each well by the median of all slope values across the plate, and the processed coagulation chromatograms were plotted to visualize very fast coagulation, medium increased coagulation and anticoagulation, as previously described^37.

The conditions of series [3]: cited from earlier work.

For orientation: half-life means the time in which the quantity being followed falls by half.

Read-outs that look alike come from different tables or passages of the source.

For `CNC(=O)[C@@H](NC(=O)[C@H](CC(C)C)[C@H](O)C(=O)NO)C(C)(C)C` [marimastat], in series [1], the “protection against venom lethality” value was “some protection”. Also, in series [2], the “inhibition of anticoagulant fractions of D. russelii venom” value is “not neutralized by this inhibitor at any of the tested concentrations” and the “inhibition of procoagulant fractions of D. russelii venom” value was “effectively inhibited in a dose-dependent manner”. Besides, in series [3] (human, in vivo, po), the oral bioavailability is on record as 70% and the “oral bioavailability (words)” value is reported as “excellent oral bioavailability”. In addition, the “oral bioavailability (words)” value in series [3] (human, in vivo, po, listed as Marimastat) is listed as “particularly good oral bioavailability”. In series [3] (oral), the half-life is 8 to 10 h and the “time to peak plasma concentrations post-administration” value is 1.5 to 3 h.

`CCc1c(C(=O)C(N)=O)c2c(OCC(=O)O)cccc2n1Cc1ccccc1` [varespladib]: the “protection against venom lethality” value in series [1] is recorded as “survived for longer periods of time than the venom only controls”. In series [2], the “inhibition of anticoagulant fractions of D. russelii venom” value is given as “effectively inhibited the anticoagulant activity” and the “inhibition of procoagulant fractions of D. russelii venom” value is recorded as “some inhibitory effect against procoagulant venom toxins, but only at very high doses (20 μM)”. Also, in series [3] (delivered by iv infusion), the half-life is 5 h. The “oral bioavailability (words)” value in series [3] (human, in vivo, po) is given as “good oral bioavailability”.
